The source made the active and inactive calls.
How the values were obtained:
[1] = molecular target: Tyrosine-protein phosphatase non-receptor type 11 (Homo sapiens, UniProt Q06124); assay: PTPN11 enzyme inhibitors – biochemical, selectivity assay for STEP inhibitor project, dose response (AID 602367); assay type: functional; conditions: read-out: IC50_Mean
[2] = molecular target: Tyrosine-protein phosphatase non-receptor type 5 (Homo sapiens, UniProt P54829); assay: PTPN5 enzyme inhibition – biochemical, fluorescence intensity, uHTS hits, confirmation (AID 602372); assay type: functional; conditions: read-out: IC50_Mean
Sequence of Tyrosine-protein phosphatase non-receptor type 5 (P54829 whole entry): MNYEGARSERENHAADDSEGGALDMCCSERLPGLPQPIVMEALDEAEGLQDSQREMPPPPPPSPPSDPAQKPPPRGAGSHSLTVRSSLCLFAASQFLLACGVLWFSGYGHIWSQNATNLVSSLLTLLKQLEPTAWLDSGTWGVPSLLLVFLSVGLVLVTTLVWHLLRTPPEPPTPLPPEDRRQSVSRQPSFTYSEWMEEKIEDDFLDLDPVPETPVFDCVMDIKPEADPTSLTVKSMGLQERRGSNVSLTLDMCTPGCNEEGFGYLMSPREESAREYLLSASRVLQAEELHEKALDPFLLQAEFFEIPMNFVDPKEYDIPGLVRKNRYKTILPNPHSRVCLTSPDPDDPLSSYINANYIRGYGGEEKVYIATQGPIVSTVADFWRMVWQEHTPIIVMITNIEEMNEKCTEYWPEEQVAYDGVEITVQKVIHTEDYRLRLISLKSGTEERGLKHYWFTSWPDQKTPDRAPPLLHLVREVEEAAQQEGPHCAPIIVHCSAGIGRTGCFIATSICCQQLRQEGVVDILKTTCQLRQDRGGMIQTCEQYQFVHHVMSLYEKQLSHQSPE

[3] = molecular target: Dual specificity protein phosphatase 3 (Homo sapiens, UniProt P51452); assay: VHR phosphatase inhibition, dose response, selectivity assay for STEP inhibitor project, biochemical (AID 602374); assay type: functional; conditions: read-out: IC50_Mean
[4] = molecular target: T1, Small ubiquitin-related modifier 1 (Homo sapiens, UniProt P63165); assay: SUMO1 protein interaction blockers, potency – biochemical, fluorescence polarization, uHTS hits, dose response (AID 624382); assay type: functional; conditions: read-out: IC50_Mean
T1 sequence (P63165 whole entry): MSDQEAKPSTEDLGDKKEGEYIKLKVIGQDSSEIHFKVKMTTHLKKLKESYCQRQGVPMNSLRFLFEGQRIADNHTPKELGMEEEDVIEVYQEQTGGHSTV

[5] = molecular target: T1, Small ubiquitin-related modifier 1; assay: SUMO1 protein-protein binding blockers, potency – biochemical, FRET, dose response (AID 624383); assay type: functional; conditions: read-out: IC50_Mean
[6] = molecular target: T2, Tyrosine-protein phosphatase non-receptor type 22 (Homo sapiens, UniProt Q9Y2R2); assay: lymphoid phosphatase LYP inhibitors – biochemical, selectivity assay for STEP inhibitor project, dose response (AID 624241); assay type: functional
T2 sequence (Q9Y2R2 whole entry): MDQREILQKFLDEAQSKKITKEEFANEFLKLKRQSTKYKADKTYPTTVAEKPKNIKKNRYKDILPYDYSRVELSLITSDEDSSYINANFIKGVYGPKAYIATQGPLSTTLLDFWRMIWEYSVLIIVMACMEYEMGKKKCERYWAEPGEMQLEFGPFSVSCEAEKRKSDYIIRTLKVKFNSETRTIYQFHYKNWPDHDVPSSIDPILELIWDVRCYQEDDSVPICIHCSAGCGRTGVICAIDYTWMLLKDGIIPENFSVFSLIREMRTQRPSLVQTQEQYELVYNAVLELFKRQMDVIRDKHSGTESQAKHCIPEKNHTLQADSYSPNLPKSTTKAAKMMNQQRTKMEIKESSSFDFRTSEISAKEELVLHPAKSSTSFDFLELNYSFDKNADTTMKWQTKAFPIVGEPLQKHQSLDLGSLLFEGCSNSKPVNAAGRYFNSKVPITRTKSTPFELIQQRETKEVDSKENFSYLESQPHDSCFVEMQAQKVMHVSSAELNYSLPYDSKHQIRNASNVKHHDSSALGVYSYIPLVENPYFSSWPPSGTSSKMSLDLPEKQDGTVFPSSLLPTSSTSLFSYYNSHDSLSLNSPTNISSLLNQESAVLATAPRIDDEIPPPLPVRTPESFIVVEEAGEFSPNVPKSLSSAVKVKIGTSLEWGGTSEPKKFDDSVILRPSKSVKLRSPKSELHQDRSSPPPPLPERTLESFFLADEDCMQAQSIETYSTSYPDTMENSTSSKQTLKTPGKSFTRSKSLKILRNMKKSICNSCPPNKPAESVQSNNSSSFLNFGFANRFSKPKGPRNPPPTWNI

[7] = mouse fibroblast viability loss – cell-based, cherry-pick samples, set 2, cytotoxicity control for T. cruzi growth inhibitor project, dose response (AID 651817); assay type: functional; conditions: NIH3T3
[8] = intracellular Trypanosoma cruzi inhibitors in host cells – cell-based, plate reader, cherry-pick samples, set 3, dose response (AID 651818); assay type: functional;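 note: compounds incubated with infected cells for about four days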
[9] = molecular target: ADP-ribosylation factor GTPase-activating protein 1 (Rattus norvegicus, UniProt Q62848); assay: Fluorescence polarization-based biochemical high throughput dose response screening assay to identify inhibitors of ADP-ribosylation factor GTPase activating protein 1 (ARFGAP1).; assay type: functional
Sequence of ADP-ribosylation factor GTPase-activating protein 1 (Q62848 whole entry, the tested form may be a part): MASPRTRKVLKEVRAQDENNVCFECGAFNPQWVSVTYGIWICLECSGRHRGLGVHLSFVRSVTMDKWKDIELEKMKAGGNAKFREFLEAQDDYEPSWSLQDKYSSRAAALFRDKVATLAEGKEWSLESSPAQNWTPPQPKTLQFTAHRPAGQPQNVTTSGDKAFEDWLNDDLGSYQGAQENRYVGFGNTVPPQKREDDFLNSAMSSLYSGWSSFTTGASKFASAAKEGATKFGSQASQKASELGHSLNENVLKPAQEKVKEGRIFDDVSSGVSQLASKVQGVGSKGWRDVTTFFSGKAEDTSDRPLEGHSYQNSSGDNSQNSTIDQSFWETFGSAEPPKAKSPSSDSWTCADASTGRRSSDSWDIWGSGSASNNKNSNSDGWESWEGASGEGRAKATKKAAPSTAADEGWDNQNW

[10] = molecular target: Arf-GAP with SH3 domain, ANK repeat and PH domain-containing protein 1 (Homo sapiens, UniProt Q9ULH1); assay type: functional;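 note: biochemical fluorescence polarization dose–response screen measuring inhibition of ASAP1; ASAP1 GAP domain stimulating GTP hydrolysis by truncated human ARF1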
Sequence of Arf-GAP with SH3 domain, ANK repeat and PH domain-containing protein 1 (Q9ULH1 whole entry, the tested form may be a part): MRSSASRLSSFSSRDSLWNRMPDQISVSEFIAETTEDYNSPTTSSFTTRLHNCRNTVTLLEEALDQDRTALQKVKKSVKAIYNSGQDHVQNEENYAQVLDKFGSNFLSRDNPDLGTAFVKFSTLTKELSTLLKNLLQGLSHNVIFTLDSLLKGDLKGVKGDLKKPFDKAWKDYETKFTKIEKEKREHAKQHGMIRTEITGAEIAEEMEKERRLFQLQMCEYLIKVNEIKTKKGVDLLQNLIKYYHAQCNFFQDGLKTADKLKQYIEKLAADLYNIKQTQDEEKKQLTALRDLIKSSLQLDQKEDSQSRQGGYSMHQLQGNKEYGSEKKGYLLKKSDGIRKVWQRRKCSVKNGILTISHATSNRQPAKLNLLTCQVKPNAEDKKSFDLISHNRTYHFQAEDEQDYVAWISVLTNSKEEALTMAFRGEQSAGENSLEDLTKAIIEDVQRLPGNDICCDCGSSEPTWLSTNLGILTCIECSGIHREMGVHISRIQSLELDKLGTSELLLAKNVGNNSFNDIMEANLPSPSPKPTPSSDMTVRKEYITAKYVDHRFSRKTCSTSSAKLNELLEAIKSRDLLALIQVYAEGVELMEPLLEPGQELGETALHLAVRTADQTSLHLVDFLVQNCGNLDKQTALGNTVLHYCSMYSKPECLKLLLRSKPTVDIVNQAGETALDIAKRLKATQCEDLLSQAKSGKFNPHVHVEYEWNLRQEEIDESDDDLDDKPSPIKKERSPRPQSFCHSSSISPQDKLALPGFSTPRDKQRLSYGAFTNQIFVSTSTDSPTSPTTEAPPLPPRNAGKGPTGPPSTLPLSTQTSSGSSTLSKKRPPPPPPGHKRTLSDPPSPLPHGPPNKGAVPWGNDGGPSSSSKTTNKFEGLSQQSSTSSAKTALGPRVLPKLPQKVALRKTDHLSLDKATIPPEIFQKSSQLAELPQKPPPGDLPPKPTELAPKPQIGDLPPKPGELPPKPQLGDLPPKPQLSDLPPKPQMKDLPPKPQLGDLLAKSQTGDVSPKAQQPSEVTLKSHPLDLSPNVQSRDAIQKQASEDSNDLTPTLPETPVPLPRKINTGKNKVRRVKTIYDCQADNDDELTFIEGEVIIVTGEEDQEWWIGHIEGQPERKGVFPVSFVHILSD

[11] = viability of PTEN-deleted HCT116 cells – cell-based, HCT116 PTEN knockout, dose response (AID 1047); assay type: functional;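 note: HCT116 colon tumor cells with PTEN knocked out; cells exposed to compound for 60 hours before readout; potency for loss of cell viability measured by luminescence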
[12] = viability of HCT116 lacking mutant beta-catenin – cell-based, human colon tumor, dose response (AID 1045); assay type: functional;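 note: HCT116 colon tumor cells with beta catenin knocked out; cells exposed to compound for 60 hours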
[13] = molecular target: Intestinal-type alkaline phosphatase (Mus musculus, UniProt P24822); assay: PubChem AID 488785; assay type: functional
Sequence of Intestinal-type alkaline phosphatase (Mus musculus, UniProt P24822) (P24822 whole entry): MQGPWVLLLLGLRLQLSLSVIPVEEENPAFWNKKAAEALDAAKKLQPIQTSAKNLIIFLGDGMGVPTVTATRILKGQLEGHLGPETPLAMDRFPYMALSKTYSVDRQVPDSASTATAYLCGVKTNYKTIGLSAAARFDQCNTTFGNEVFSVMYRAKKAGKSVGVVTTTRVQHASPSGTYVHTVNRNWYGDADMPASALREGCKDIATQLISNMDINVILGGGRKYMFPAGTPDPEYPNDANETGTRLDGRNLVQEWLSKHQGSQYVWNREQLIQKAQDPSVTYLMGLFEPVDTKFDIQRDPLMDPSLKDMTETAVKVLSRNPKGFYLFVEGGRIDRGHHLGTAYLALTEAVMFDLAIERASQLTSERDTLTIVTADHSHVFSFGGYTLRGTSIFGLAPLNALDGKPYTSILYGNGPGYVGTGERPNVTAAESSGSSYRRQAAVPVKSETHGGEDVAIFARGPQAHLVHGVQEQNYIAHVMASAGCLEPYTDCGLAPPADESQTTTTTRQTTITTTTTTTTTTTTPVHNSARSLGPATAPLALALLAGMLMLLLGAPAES

[14] = molecular target: T3, Alkaline phosphatase, tissue-nonspecific isozyme (Homo sapiens, UniProt P05186); assay: TNAP enzyme inhibition by screening hits, dose response, selectivity assay for mouse IAP inhibitor project, biochemical, human TNAP, uHTS hits (AID 488906); assay type: functional
T3 sequence (P05186 whole entry): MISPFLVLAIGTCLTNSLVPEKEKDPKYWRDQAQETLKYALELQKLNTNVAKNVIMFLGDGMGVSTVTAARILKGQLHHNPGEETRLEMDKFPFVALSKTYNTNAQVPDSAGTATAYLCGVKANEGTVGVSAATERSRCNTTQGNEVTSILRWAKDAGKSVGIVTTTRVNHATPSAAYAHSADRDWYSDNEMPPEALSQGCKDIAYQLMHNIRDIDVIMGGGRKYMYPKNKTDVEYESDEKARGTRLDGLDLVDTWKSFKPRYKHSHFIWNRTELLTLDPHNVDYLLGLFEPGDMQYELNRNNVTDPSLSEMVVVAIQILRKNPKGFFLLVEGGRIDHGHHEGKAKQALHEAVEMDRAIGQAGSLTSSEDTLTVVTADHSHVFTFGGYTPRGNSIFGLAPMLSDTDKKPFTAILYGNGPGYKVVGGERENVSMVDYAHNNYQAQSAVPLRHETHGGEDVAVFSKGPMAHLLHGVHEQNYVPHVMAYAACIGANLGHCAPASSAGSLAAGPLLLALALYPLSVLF

[15] = molecular target: Intestinal-type alkaline phosphatase (Homo sapiens, UniProt P09923); assay: inhibition of human intestinal alkaline phosphatase – biochemical, dose response (AID 488876); assay type: functional
Sequence of Intestinal-type alkaline phosphatase (Homo sapiens, UniProt P09923) (P09923 whole entry): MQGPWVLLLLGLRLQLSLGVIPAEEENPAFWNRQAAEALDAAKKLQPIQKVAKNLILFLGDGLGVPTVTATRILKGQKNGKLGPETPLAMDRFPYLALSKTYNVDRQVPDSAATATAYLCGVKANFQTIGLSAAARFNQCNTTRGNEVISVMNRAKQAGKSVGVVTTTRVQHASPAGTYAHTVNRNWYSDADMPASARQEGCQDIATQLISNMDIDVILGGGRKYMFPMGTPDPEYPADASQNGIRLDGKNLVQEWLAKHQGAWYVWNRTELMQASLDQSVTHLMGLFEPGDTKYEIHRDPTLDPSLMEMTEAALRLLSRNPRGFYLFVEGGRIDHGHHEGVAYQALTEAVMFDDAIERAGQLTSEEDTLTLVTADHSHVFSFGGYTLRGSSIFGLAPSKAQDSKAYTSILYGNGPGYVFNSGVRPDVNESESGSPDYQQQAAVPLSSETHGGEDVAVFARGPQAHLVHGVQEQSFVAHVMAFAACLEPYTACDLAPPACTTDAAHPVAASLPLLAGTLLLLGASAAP

INS1 = assay: INS-1E survival protection against cytokine death – cell-based, luminescence, retest, dose response (AID 449756); assay type: functional; conditions: Rattus norvegicus;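 note: cell death triggered by IL-1 beta plus TNF-alpha plus IFN-gamma mixture; protective hits raise ATP signal compared with cytokine alone wells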
[16] = molecular target: Hepatocyte nuclear factor 4-alpha (Homo sapiens, UniProt P41235); assay type: functional, cell-based;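 note: biochemical luminescence-based dose-response counterscreen measuring inhibition of HNF4 dimerization, run alongside a screen for blockers of ABHD5–perilipin-5 interaction; split luciferase complementation of HNF4 fusion proteins in cell lysate measuring dimerization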
Sequence of Hepatocyte nuclear factor 4-alpha (P41235 whole entry, the tested form may be a part): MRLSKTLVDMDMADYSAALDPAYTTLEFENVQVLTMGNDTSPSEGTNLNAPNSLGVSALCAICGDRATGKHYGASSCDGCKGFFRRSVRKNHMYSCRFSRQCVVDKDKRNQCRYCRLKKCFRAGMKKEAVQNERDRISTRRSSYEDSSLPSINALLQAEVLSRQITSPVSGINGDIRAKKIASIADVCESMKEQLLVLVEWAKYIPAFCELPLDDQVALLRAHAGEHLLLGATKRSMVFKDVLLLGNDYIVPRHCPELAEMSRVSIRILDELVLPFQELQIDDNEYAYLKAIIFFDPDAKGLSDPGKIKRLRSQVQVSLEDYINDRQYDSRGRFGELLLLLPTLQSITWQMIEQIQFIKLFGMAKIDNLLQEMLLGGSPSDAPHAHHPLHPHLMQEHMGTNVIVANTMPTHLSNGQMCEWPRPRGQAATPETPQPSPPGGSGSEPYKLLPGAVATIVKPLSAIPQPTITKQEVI

Cytochrome P450 1A2 = molecular target: T4, Cytochrome P450 1A2 (Homo sapiens, UniProt P05177);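 note: PubChem cytochrome P450 panel assay, CYP1A2 panel member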
T4 sequence (P05177 whole entry): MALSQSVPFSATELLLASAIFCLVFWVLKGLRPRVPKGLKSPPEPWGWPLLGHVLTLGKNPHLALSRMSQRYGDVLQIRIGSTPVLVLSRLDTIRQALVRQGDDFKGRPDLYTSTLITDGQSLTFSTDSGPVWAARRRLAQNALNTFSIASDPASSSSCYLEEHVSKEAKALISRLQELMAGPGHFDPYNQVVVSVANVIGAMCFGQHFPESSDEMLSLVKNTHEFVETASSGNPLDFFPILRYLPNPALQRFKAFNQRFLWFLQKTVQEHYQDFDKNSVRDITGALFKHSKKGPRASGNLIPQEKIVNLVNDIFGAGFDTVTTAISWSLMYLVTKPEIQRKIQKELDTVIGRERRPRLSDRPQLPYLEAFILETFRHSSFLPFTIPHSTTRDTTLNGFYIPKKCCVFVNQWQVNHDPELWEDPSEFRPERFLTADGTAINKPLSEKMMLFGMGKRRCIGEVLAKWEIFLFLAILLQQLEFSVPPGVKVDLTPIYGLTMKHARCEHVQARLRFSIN

Cytochrome P450 2C9 = Cytochrome P450 2C9 (Homo sapiens, UniProt P11712)
Sequence of Cytochrome P450 2C9 (P11712 whole entry): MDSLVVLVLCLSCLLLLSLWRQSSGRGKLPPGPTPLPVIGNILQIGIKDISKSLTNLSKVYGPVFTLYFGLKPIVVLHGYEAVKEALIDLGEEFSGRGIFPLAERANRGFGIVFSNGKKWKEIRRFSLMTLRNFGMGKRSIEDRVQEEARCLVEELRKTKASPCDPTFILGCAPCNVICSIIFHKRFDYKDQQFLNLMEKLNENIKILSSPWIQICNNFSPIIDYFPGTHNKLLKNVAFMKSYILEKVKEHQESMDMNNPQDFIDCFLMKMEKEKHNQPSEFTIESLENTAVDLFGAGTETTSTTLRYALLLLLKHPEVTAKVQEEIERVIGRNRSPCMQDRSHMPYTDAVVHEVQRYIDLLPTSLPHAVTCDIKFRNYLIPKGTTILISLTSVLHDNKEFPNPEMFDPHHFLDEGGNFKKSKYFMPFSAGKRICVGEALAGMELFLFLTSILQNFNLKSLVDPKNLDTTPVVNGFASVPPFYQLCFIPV

Sequence of Tyrosine-protein phosphatase non-receptor type 11 (Q06124 whole entry): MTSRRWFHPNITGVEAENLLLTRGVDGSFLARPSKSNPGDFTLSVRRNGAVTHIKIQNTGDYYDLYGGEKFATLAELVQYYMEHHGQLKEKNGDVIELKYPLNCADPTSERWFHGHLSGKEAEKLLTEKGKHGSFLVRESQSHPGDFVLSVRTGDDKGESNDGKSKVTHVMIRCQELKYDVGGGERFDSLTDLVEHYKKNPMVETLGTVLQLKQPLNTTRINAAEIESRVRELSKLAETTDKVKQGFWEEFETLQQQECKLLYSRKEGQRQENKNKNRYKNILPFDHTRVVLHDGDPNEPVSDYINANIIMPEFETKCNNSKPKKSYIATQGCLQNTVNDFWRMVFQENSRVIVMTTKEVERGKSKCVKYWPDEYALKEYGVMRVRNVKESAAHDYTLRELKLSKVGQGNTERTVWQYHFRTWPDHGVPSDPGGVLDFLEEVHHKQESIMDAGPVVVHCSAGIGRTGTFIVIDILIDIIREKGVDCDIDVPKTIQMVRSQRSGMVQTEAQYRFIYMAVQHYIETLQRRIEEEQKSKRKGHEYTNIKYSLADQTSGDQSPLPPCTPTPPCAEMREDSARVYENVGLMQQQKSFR

Compound: CC1=C(C(=O)OC(C)C)C(c2ccc(Cl)cc2)n2c(s/c(=C\c3ccc(OCC(=O)O)cc3)c2=O)=N1 (centres undefined)
- IC50 [1]: 3.24 µM (active)
- IC50 [2]: 4.68 µM (active)
- IC50 [3]: 3.02 µM (active)
- IC50 [4]: > 66.6 µM (inactive)
- IC50 [5]: 7.22 µM (active)
- IC50 [6]: 14.7 µM (active)

Compound: COc1ccc(CN(C)C[C@@H]2Oc3c(NC(=O)Nc4ccc(C(F)(F)F)cc4)cccc3C(=O)N([C@H](C)CO)C[C@H]2C)cc1
- AC50 [7]: 11.3 µM (active)
- AC50 [8]: 1.8 µM (active)

Compound: COC(=O)Cn1cc(/C=N/NC(=O)COc2cccc3cccnc23)c2ccccc21
- IC50 [9]: 119 µM (inactive)
- IC50 [10]: 116 µM (inactive)

Compound: CCOc1cc(/C=C2\CCC/C(=C\c3cc(Cl)c(O)c(OCC)c3)C2=O)cc(Cl)c1O
- EC50 [11]: 2.24 µM (active)
- EC50 [12]: 2.23 µM (active)
- IC50 [13]: 7.08 µM (active)
- IC50 [14]: > 100 µM (inactive)
- IC50 [15]: > 100 µM (inactive)
- AC50 (INS1): 8.02 µM (active)
- IC50 [16]: 6.46 µM (active)
- AC50 (Cytochrome P450 1A2): 10 µM (inconclusive)
- AC50 (Cytochrome P450 2C9): inconclusive

Reference: ChEMBL document CHEMBL1201862, “PubChem BioAssay data set” (2004)
